In US12343377B2, “Combination therapies comprising a hypomethylation agent for treating cancer” (ALX Oncology Inc., priority 2020, dated 2025):

Columns and labels:
[1] = cited from earlier work
[2] = tested on: HL60-LUC2 acute myeloid leukemic model; test: Disseminated HL60-LUC2 systemic leukemic model, Drug A and venetoclax; conditions: monotherapy; Drug A 30 mg/kg IP, venetoclax 100 mg/kg oral gavage, Q3D 5 doses; FIG. 8
Procedure: The HL60LUC2 (ATCC) cell line was injected through the tail vein of NOD-SCID female mice at a concentration of 7.5×10^6 cells per in RPMI 1640. Bioluminescence imaging (BLI) acquisition and analysis were performed using the IVIS Spectrum (Perkin Elmer) to monitor tumor growth. Firefly D-luciferin (Regis Technologies) was diluted to 15 mg/ml stock in phosphate-buffered saline and filtered before use. Groups of mice were placed in the specimen chamber and injected with 200 μl of D-luciferin intraperitoneally (IP). BLI whole-body signal was acquired at approximately 10 minutes post injection. BLI flux values were serially monitored twice a week with initial scans acquired three days post inoculation of mice. Living Image Software (Perkin Elmer) was used to quantify BLI average total flux values (photons/second, p/s) following the manual construction of regions of interest over the entire mouse body. […] Drug A-treated mice were dosed by IP injection at 30 mg/kg, five times total at three days apart. Animals were sacrificed when the total flux reached 1E11 or loss in body weight of greater than 20%.
Venetoclax and Drug A therapies were initiated 4 days post engraftment and dosed every 3 days for a total of 5 doses.

[3] = tested on: calreticulin on the surface of MV4-11 cells; test: Analysis of calreticulin cell-surface expression, MV4-11; format: cell-based, human; conditions: for expression of the pro-phagocytic signal calreticulin in the MV411 AML cell line: FIG. 3B
Procedure: (§1) To detect changes in calreticulin expression levels in human acute myeloid leukemia cell lines HL60, OCI-AML3 and MV4-11, cells were incubated with either 2.5 pM or 75 nM of azacitidine (Selleckchem) in complete growth medium (RPMI1640, 10% FBS) in a 37° C. 5% CO2 incubator for 72 hrs. Cells grown in complete growth medium was used as a control for calreticulin baseline expression. After incubation, cells were harvested and washed once in staining buffer (PBS, 2% FBS), stained in PBS with fixable live/dead stain (Invitrogen) for 1 hour at 4° C., washed once in staining buffer and incubated with 500 ng/mL of calreticulin-AF647 (clone 1G6A7, Novus). After a 1 hour incubation at 4° C., cells were washed twice in staining buffer and fixed in 0.5% paraformaldehyde. Cells were analyzed on an Attune (ThermoScientific), and subsequent data analysis using Flowjo 10.6.
(§2) HL60 is a TP53null FLT3 wt cell line; OCI-AML3 is TP53 wt and FLT3 wt; and MV4-11 is TP53 wt and FLT3-ITD.
(§3) The effect of azacitidine or venetoclax on the expression levels of calreticulin on the cell surfaces of MV4-11 and primary AML cells from two different human patients was also tested.

[4] = tested on: CD47 on primary AML blasts; test: CD47 cell-surface expression, primary AML blasts; format: cell-based; conditions: two human patients; FIG. 3C
Procedure: (§4) In another set of assays, the effect of azacitidine or venetoclax on the expression levels of CD47 on the cell surfaces of MV4-11 and primary AML cells from two different human patients was tested.

[5] = tested on: calreticulin on primary AML blasts; test: Analysis of calreticulin cell-surface expression, primary AML blasts; format: cell-based; conditions: two human patients; FIG. 3B
Procedure: as §3

[6] = tested on: CD47 on the cell surfaces of MV4-11; test: CD47 cell-surface expression, MV4-11; format: cell-based, human; conditions: FIG. 3C
Procedure: as §4

[7] = molecular target: T1, BFL-1 (BCL2A1/A1) (Homo sapiens, UniProt Q16548); conditions: selectivity profile; cited from earlier work
T1 sequence (Q16548 1-175): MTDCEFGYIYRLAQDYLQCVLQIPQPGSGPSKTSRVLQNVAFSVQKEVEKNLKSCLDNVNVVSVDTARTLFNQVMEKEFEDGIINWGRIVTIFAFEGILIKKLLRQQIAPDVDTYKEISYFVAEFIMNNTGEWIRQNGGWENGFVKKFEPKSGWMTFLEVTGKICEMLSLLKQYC

[8] = molecular target: MCL-1 (Homo sapiens, UniProt Q07820); conditions: selectivity profile; cited from earlier work
MCL-1, sequence (Q07820 whole entry, species assumed): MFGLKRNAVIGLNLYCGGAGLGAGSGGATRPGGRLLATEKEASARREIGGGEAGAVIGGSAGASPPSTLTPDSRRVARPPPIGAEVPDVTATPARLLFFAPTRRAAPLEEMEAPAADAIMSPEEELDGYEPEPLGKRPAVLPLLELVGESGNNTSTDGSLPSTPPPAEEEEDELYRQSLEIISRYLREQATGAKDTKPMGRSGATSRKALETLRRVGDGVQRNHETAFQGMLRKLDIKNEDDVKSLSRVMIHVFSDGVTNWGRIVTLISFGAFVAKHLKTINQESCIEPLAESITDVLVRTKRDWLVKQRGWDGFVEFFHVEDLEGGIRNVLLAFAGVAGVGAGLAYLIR

[9] = tested on: BCL-XL-dependent cells, such as platelets; conditions: cited from earlier work
[10] = molecular target: BCL-XL (Homo sapiens, UniProt Q07817); conditions: selectivity profile; cited from earlier work
BCL-XL, sequence (Q07817 whole entry, species assumed): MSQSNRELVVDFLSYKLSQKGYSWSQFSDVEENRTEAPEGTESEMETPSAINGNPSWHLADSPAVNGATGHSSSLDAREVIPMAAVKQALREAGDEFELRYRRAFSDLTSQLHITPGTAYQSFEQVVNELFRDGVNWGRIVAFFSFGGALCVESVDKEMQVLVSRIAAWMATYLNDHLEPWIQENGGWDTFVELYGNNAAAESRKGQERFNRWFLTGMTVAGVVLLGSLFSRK

[11] = tested on: HL60 tumor xenografts; test: Subcutaneous HL60 leukemia xenograft model; format: in vivo, mice
Procedure: (§5) Tumors were monitored until average size of all tumors reached 105 mm^3 for HL60, 75 mm^3 for MV4-11 and 112 mm^3 for OCI-AML3. […] Mice in HL60 and OCI-AML3 tumor models were dosed intraperitoneally (IP) five times, three days apart at 5 mg/kg for azacitidine, and six times, three days apart at 10 mg/kg for Drug A. MV4-11 tumor bearing mice were dosed IP three times per week at 5 mg/kg for azacitidine and 10 mg/kg for Drug A. Tumors were measured in two dimensions with calipers and tumor volume was calculated as: length×width×width×0.5, where length was the larger of the two measurements. Animals were sacrificed when tumor reached a volume of ˜2000 mm^3.
(§6) In this Example, the anti-tumor activity of Drug A in combination with azacitidine (aza) was assessed mice bearing either HL60, OCI-AML3 and MV4-11 human leukemia tumor xenografts. (See Example 1 for experimental details.) HL60 is a TP53null FLT3 wt cell line; OCI-AML3 is TP53 wt and FLT3 wt; and MV4-11 is TP53 wt and FLT3-ITD.
(§7) Mice bearing HL60 xenografted tumors were randomized to 4 groups of 4-5 mice each. One group of mice was given (a) Drug A at 10 mg/kg IP (Q3D, 6 doses total), (b) aza at 5 mg/kg IP (Q3D, 5 doses total), (c) both Drug A and aza (at the doses and administration schedule for each single agent), or (d) vehicle. Mice bearing OCI-AML3 xenografts were similarly randomized and treated. […]

[12] = Human PBMC viability assay; format: cell-based; conditions: CD11c+ dendritic cells in human PBMC cultures, 1.25 pM azacitidine alone, FIG. 2, read-out: reduction of the viability of CD11c^+ dendritic cells
Procedure: PBMCs were counted and plated in complete RPMI. Drug A alone or in combination azacitidine was added to the PBMCs. Following 72-hour or five day incubation at 37° C., cells were stained with a fixable viability dye followed by staining with cell surface markers: CD3, CD19, CD14, CD56, CD16, CD11c, and HLADR (Biolegend). Cells were processed for flow cytometry by Attune NxT and analyzed by FlowJo 10.3. Viability gating strategy included double singlet exclusion by FSC height and FSC width followed by cell type surface marker then viability gate. CD11c DCs were identified as lineage negative (CD3, CD19, CD14, CD16 and CD56) HLADR^+ CD11c^+. Percent viable cells were tabulated using GraphPad Prism 8.
Dendritic cells (DCs) are antigen-presenting cells (also known as accessory cells) of the mammalian immune system. They are believed to act as messengers between the innate and the adaptive immune systems.

[13] = tested on: OCI-AML3 tumor xenografts; test: Subcutaneous OCI-AML3 leukemia xenograft model; format: in vivo, mice; conditions: day 20, Drug A 10 mg/kg IP Q3D 6 doses, aza 5 mg/kg IP Q3D 5 doses
Procedure: as §5, §6, §7

[14] = tested on: calreticulin on the surface of OCI-AML3 cells; test: Analysis of calreticulin cell-surface expression, OCI-AML3; format: cell-based, human; conditions: with increased concentrations of azacitidine, 72 hrs; FIG. 3A
Procedure: as §1, §2

[15] = tested on: HL60 cells; test: In vitro phagocytosis assay, HL60 cells by human monocyte-derived macrophages; format: cell-based; conditions: single agent, compared to untreated cells; FIG. 1A
Procedure: CD14^+ monocytes were purified by negative selection using the Classical Monocytes Isolation Kit, human (Miltenyi Biotec) and LS columns (Miltenyi Biotec) according to the manufacturer's protocol. CD14^+ monocytes were seeded into 150 mm tissue culture dishes (Corning) at 6 million cells per dish in 25 mL medium comprised of RPMI complete media, supplemented with 50 ng/mL M-CSF (Miltenyi Biotec), 10% FBS (Thermo Fisher Scientific), 1% penicillin/streptomycin, and 1% GlutaMAX. Cells were cultured for seven to eleven days.
Target cells, HL60 and OCI-AML3 cells, were washed once in PBS and labeled with the Celltrace CFSE Cell Proliferation kit (Thermo Fisher Scientific) in suspension with 300 nM CFSE (carboxyfluorescein succinimidyl ester) according to the manufacturer's instructions and resuspended in RPMI complete media. Target cells were incubated overnight with two-fold serial dilutions of azacitidine between 39 nM to 2.5 μM in RPMI complete media. Prior to incubation with macrophages, cells were resuspended in RPMI. Macrophages were detached from culture plates by washing once with PBS and incubation in TrypLE Select for 20 minutes at 37° C. […]
Briefly HL60 cells and OCI-AML3 cells (i.e., “target cells”) were labeled with CFSE (carboxyfluorescein succinimidyl ester) and treated with azacitidine (aza) for 48 hours. […] Macrophage cells were pelleted, stained, and analyzed via flow cytometry. […]

[16] = tested on: HL60-LUC2 acute myeloid leukemic model; test: Disseminated HL60-LUC2 systemic leukemic model, Drug A and azacitidine; format: in vivo, mice
Procedure: After transplantation of HL60-LUC2 cells by intravenous tail injection into immunodeficient NSG mice (7.5E6 cells/animal), engraftment was confirmed by bioluminescence imaging and mice were randomized into 4 groups (10 mice/group). Treatment was performed as shown Table A below.
Treatment was continued until mice received 14 doses of single agent Drug A, single agent azacitidine, or Drug A in combination with azacitidine.

[17] = tested on: MV4-11 tumor xenografts; test: Subcutaneous MV4-11 leukemia xenograft model; format: in vivo, mice; conditions: day 26, Drug A 10 mg/kg and aza 5 mg/kg IP three times per week
Procedure: as §5, §6
Mice bearing MV4-11 xenografts were randomized into 4 groups of 9-10 each. One group of mice was given Drug A at 10 mg/kg IP (3 times per week), the second group of mice was given aza at 5 mg/kg IP (three times per week), the third group was given both Drug A and aza (at the doses and administration schedule for each single agent, and the fourth group was given vehicle. […]

[18] = tested on: calreticulin on the surface of HL60 cells; test: Analysis of calreticulin cell-surface expression, HL60; format: cell-based, human; conditions: with increased concentrations of azacitidine, 72 hrs; FIG. 3A
Procedure: as §1, §2

CC1(C)CCC(CN2CCN(c3ccc(C(=O)NS(=O)(=O)c4ccc(NCC5CCOCC5)c([N+](=O)[O-])c4)c(Oc4cnc5[nH]ccc5c4)c3)CC2)=C(c2ccc(Cl)cc2)C1 [venetoclax, 4-(4-{[2-(4-chlorophenyl)-4,4dimethylcyclohex-1-en-1-yl]methyl}piperazin-1-yl)-N-({3-nitro-4-[(tetrahydro-2H-pyran-4ylmethyl)amino]phenyl}sulfonyl)-2-(1H-pyrrolo[2,3-b]pyridin-5-yloxy)benzamide]
aqueous solubility [1]: very low
tumor growth [2]: moderate tumor growth inhibition
expression of the pro-phagocytic signal calreticulin in the MV411 AML cell line [3]: increase
expression of the anti-phagocytic signal CD47 in primary AML blasts [4]: increase
expression of the pro-phagocytic signal calreticulin in primary AML blasts [5]: increase
expression of the anti-phagocytic signal CD47 in the MV411 AML cell line [6]: increase

O=C(c1cc(-c2cc3c(cc2C(=O)N2Cc4ccccc4C[C@H]2CN2CCOCC2)OCO3)n2c1CCCC2)N(c1ccccc1)c1ccc(O)cc1 [Drug S55746, (S)—N-(4-hydroxyphenyl)-3-(6-(3-(morpholinomethyl)-1,2,3,4-tetrahydroisoquinoline-2-carbonyl)benzo[d][1,3]dioxol-5-yl)-N-phenyl-5,6,7,8-tetrahydroindolizine-1-carboxamide]
binding to BFL-1 (BCL2A1/A1) [7]: no significant binding
binding to MCL-1 [8]: no significant binding
cytotoxic activity on BCL-XL-dependent cells, such as platelets [9]: no cytotoxic activity
affinity for BCL-XL [10]: poor affinity

Nc1ncn([C@@H]2O[C@H](CO)[C@@H](O)[C@H]2O)c(=O)n1 [azacitidine, 4-amino-1-[(2R,3R,4S,5R)-3,4-dihydroxy-5-(hydroxymethyl)oxolan-2-yl]-1,3,5-triazin-2-one]
HL60 tumor growth ([11]; day 20, compared to vehicle control, FIG. 4A): minimally inhibited
% tumor growth inhibition (TGI) ([11]; day 20, HL60, Drug A 10 mg/kg IP Q3D 6 doses, aza 5 mg/kg IP Q3D 5 doses): 42%
expression of the pro-phagocytic signal calreticulin in the MV411 AML cell line [3]: increase
expression of calreticulin on the surface of MV4-11 cells ([3]; with increased concentrations of azacitidine, 72 hrs, FIG. 3A): increased
cytotoxicity at 1.25 pM [12]: ~40%
% tumor growth inhibition (TGI) [13]: 33%
expression of the anti-phagocytic signal CD47 in primary AML blasts [4]: increase
expression of calreticulin on the surface of OCI-AML3 cells [14]: increased
macrophage-mediated phagocytosis of HL60 cells [15]: stimulated macrophage-mediated phagocytosis of HL60 cells slightly
expression of the pro-phagocytic signal calreticulin in primary AML blasts [5]: increase
expression of the anti-phagocytic signal CD47 in the MV411 AML cell line [6]: increase
tumor growth ([16]; 14 doses, Drug A 30 mg/kg, azacitidine 5 mg/kg, FIG. 5C): moderate tumor growth inhibition
Day by which all mice succumbed ([16]; second set of experiments, single agent, Q3D 14 doses, FIG. 5D): ~85 days
% tumor growth inhibition (TGI) [17]: 49%
expression of calreticulin on the surface of HL60 cells [18]: increased
